One data set concerns HCT-116. Description: Inhibitory concentration against human HCT116 colon cancer cell line. The data set is classed as functional, cell-based.
For another data set, the system named is Bel-7402. Description: Inhibitory concentration against human Bel-7402 liver cancer cell line. The data set is classed as functional, cell-based.
Data set [1] is described as follows: Lethal toxicity against mouse tumor sarcoma-180 model after intraperitoneal administration of 2.5 mg/kg dose expressed as number of deaths out of 10 mice. The data set is classed as organism-based. Further details: dose 2.5 mg/kg, route intraperitoneal. Particulars: in vivo, ip.
Data set [2] concerns Mus musculus. The data set can be described thus: Percent tumor-weight inhibition in mouse tumor sarcoma-180 model after intraperitoneal administration of 2.5 mg/kg dose in comparison with control mice. The data set is classed as functional.
Data set [3] relates to Mus musculus. Description: Average tumor weight in mouse tumor sarcoma-180 model after intraperitoneal administration of 2.5 mg/kg dose. Type of data set: functional.
Data set [4] concerns Mus musculus. Description: Percent change in body-weight of mouse tumor sarcoma-180 model after intraperitoneal administration of 2.5 mg/kg dose. The data set is classed as functional.
Data set [5] is described as follows: Lethal toxicity against mouse tumor sarcoma-180 model after intraperitoneal administration of 5 mg/kg dose expressed as number of deaths out of 10 mice. Type of data set: organism-based. Particulars: in vivo, ip. Further details: dose 5 mg/kg, route intraperitoneal.
Data set [6] has as its system Mus musculus. Description: Percent change in body-weight of mouse tumor sarcoma-180 model after intraperitoneal administration of 5 mg/kg dose. The data set is classed as functional.
Data set [7] relates to Mus musculus. The data set can be described thus: Percent tumor-weight inhibition in mouse tumor sarcoma-180 model after intraperitoneal administration of 5 mg/kg dose in comparison with control mice. The data set is classed as functional.
For data set [8], the system named is Mus musculus. The data set can be described thus: Average tumor weight in mouse tumor sarcoma-180 model after intraperitoneal administration of 5 mg/kg dose. Type of data set: functional.
The nature of data set [9]: Lethal toxicity against mouse tumor sarcoma-180 model after intraperitoneal administration of 75 mg/kg dose expressed as number of deaths out of […]. Details: dose 75 mg/kg, route intraperitoneal. The data set is classed as organism-based. The settings on record: in vivo, ip.
The test system of data set [10] is Mus musculus. The data set can be described thus: Percent change in body-weight of mouse tumor sarcoma-180 model after intraperitoneal administration of 75 mg/kg dose. The data set is classed as functional.
The subject of data set [11] is Mus musculus. The data set can be described thus: Percent tumor-weight inhibition in mouse tumor sarcoma-180 model after intraperitoneal administration of 75 mg/kg dose in comparison with control mice. Type of data set: functional.
The subject of data set [12] is Mus musculus. The data set can be described thus: Average tumor weight in mouse tumor sarcoma-180 model after intraperitoneal administration of 75 mg/kg dose. Type of data set: functional.

The term IC50 denotes the concentration that inhibits the measured activity by half. High values mean lower potency, low ones higher potency. Regarding `CCCc1c(O)ccc2nc3c(c(CC)c12)Cn1c-3cc2c(c1=O)COC(=O)[C@]2(O)CC`, the half-inhibitory concentration (IC50) stood at 12 nM with HCT-116 and 3010 nM in the data set on Bel-7402.
On to `CCc1c(OC)ccc2nc3c(c(CC)c12)Cn1c-3cc2c(c1=O)COC(=O)[C@]2(O)CC`, for which the values for the concentration for half-maximal inhibition (IC50) in the data set with HCT-116 and with Bel-7402 were 61 nM and 2400 nM, respectively.
In turn, `C=CCc1c(O)ccc2nc3c(c(CC)c12)Cn1c-3cc2c(c1=O)COC(=O)[C@]2(O)CC` displayed a Lethal toxicity in data set [1] of 0. The IC50 with HCT-116 was found to be 14 nM; in the data set on Bel-7402, 2750 nM. The compound further came in with a TWI in the data set on Mus musculus [2] of 81.2%. In addition, the TW with Mus musculus [3] came out at 0.62. In the data set on Mus musculus [4], this compound had a BWC of 9%.
For `CCc1c(O)ccc2nc3c(c(CC)c12)Cn1c-3cc2c(c1=O)COC(=O)[C@]2(O)CC`, the IC50 is 23 nM with HCT-116 and 2010 nM with Bel-7402.
With `CCCc1c(OC)ccc2nc3c(c(CC)c12)Cn1c-3cc2c(c1=O)COC(=O)[C@]2(O)CC`, the half-maximal inhibitory concentration (IC50) with HCT-116 is 153 nM; with Bel-7402 it was 3840 nM.
For `C=CCc1c(OC)ccc2nc3c(c(CC)c12)Cn1c-3cc2c(c1=O)COC(=O)[C@]2(O)CC`, the figures for the IC50 with HCT-116 and in the data set with Bel-7402 were 68 nM and 2160 nM, respectively.
As to `CCc1c2c(nc3ccc(O)cc13)-c1cc3c(c(=O)n1C2)COC(=O)[C@]3(O)CC` [7-ETHYL-10-HYDROXYCAMPTOTHECIN], the Lethal toxicity in [5] turned out to be 0. The IC50 in the data set on HCT-116 was determined as 7 nM; with Bel-7402, 3190 nM. Moreover, the BWC in the data set with Mus musculus [6] is on record as 45%. The same compound gave a TWI in the data set with Mus musculus [7] of 41.5%. This compound also had a TW in the data set on Mus musculus [8] of 1.93.
On to `O=c1[nH]cc(F)c(=O)[nH]1` [FLUOROURACIL], for which, in [9], the Lethal toxicity is recorded as 0. In the data set with Mus musculus [10], this compound returned a BWC of 74%. This compound yielded a TWI with Mus musculus [11] of 53.9%. The same compound gave a TW with Mus musculus [12] of 1.52.
`CC[C@@]1(O)C(=O)OCc2c1cc1n(c2=O)Cc2cc3cc(O)ccc3nc2-1` [HYDROXYCAMPTOTHECIN]: the concentration for half-maximal inhibition (IC50) with HCT-116 amounted to 148 nM; with Bel-7402, 2470 nM.
`CC[C@@]1(O)C(=O)OCc2c1cc1n(c2=O)Cc2cc3c(CN(C)C)c(O)ccc3nc2-1` [TOPOTECAN]: the IC50 worked out at 100 nM with HCT-116 and 3980 nM in the data set with Bel-7402.
